Results taken from patent publication US6951866B2, “Bicyclic pyrimidine compounds and therapeutic use thereof” (Sumitomo Pharmaceuticals Company, Limited, priority 1998, dated 2005).
Read-outs that look alike come from different tables or passages of the source.

Columns and labels:
Format in all cases: cell-based
IL-4 = test: Cytokine production (IL-4) from KLH-stimulated mouse lymph node cells, ELISA; details: 4 days; for IC50: Mus musculus, 96 h, lymph node cells of KLH-sensitized BALB/c mice, KLH 0.1 mg/ml, read-out: IL-4 inhibition activity IC50; for production of IL-4: Test 3, KLH-stimulated mouse lymph node cells
Method: (§1) Activity on Cytokines Production from Mouse Lymph Node Cells by Compounds of Working Examples
(§2) BALB/c mice were purchased from Japan Charlse River (Yokohama) and 8 weeks female mice were used.
(§3) D-MEM (High Glucose) medium (Nikken Biomedical Research Lab. (Kyoto), Code No. CM4402) supplemented with 20% heat-inactivated (56° C., 30 min.) fetal bovine serum (Characterized, Code No. A-1115-L, HyClone Lab., Logan, Utah), 50 μM 2-mercaptoethanol (Sigma, St. Louis, Mo., Code No. M-6250), 100 unit/ml penicillin and 100 μg/ml streptomycin (Penicillin-Streptomycin, Bibco-BRL, Code No. 15140-122) were used for the assay.
Each test compound dissolved in DMSO (Nacalai Tesque (Kyoto) code No. 11J) at a concentration of 100 mM was diluted to final concentration with the medium.
KLH (0.2 mg) was subcutaneously administered to mouse foot with Freund's complete adjuvant (Difco Lab., Detroit, Mich., Code No. 3113-60-5). Eight days later popliteal lymph node was picked up and its cell suspension was prepared.
(§4) KLH (0.1 mg/ml) and the test compound were added to lymph node cells (2.5×10^6 cells/ml) and the mixture was incubated at 37° C. under 5% CO2 for 4 days (Corning 25850, 0.15 ml/well). Then, amount of cytokine produced in the supernatant was measured by ELISA specific to cytokine.
(§5) Amounts of interleukin 4 (IL-4) and interleukin 5 (IL-5) as a typical Th2 type cytokine, and amount of interferon γ (IFN-γ) as a typical Th1 type cytokine were measured.
Amount of IL-4 was measured by ELISA as mentioned below. A rat anti-mouse IL-4 antibody (Pharmingen, San Diego, Calif., Code No. 18031D, 0.5 mg/ml) as a primary antibody was diluted 250 times with hydrogen carbonate buffer, and it was inoculated to the 96-well plate (Falcon 3912, Becton Dickinson and Company, Flanklin Lakes, N.J.) (50μ/well) and each well was coated at 4° C. overnight. Then the plate was blocked with PBS (−) solution (phosphate-buffered saline without calcium chloride and magnesium chloride) containing 3% BSA (200 μl/well). After rinsing the plate three times with PBS (−) solution containing 0.05% polyoxyethylene solbitan monolaurate (Tween 20™, Nacalai Tesque (Kyoto) Code No. 281-51) (PBST), the supernatant of the culture medium was added to the wells (50 μl/well) and incubated at room temperature for 4 hours. Recombinant mouse IL-4 (Pharmingen, Code No. 19231W) was used for preparing a calibration curve.
After rinsing the plate three times with PBST, a rat anti-mouse IL-4 antibody labeled by biotin (Pharmingen, Code No. 18042D, 0.5 mg/ml) as a secondary antibody, which was diluted 500 times with PBS (−) solution containing 0.1% BSA, was poured into wells (100 μl/well). The plate was incubated at room temperature for one hour. The secondary antibody bound to the plate was detected with streptoabidin alkaliphosphatase (Kirkegaad & Perry Lab., Gaithersburg, Md., Code No. 15-30-00) (0.25 μg/ml, 100 μl/well). After incubation of the plate at 37° C. for one hour and rinsing the plate three times with PBST, the coloring was done by adding PNPP substrate (p-nitrophenyl disodium phosphate substrate (Nacalai Tesque) (1 mg/ml, 100 μl/well)). The absorption at 415 nm was measured by a microplate reader (MTP-120 Microplate reader, Corona Electric Co.)
In the same manner as in Test 1, each test compound dissolved in DMSO (Nacalai Tesque (Kyoto) code No. 11J) at a concentration of 100 mM was diluted to final concentration with the medium. Sensitization and preparation of lymph node cells, production of cytokine by stimulation with an antigen and measurement of amounts of cytokines were conducted in the same method as in Test 1.
By measuring inhibition rate of production of IL-4 at various concentrations of each test compound and using a graph relating to the compound concentration and the inhibition rate, 50% inhibition concentration (IC50) on each test compound was calculated.

IL-5 = test: Cytokine production (IL-5) from KLH-stimulated mouse lymph node cells, ELISA; details: Test 3, 4 days
Method: as §1, §2, §3
(§6) Each test compound dissolved in DMSO (Nacalai Tesque (Kyoto) code No. 11J) at a concentration of 100 mM was diluted to final concentration with the medium. […]
as §4, §5
(§7) Amount of IL-4 was measured by ELISA as mentioned below. […]

IFN-γ = test: Cytokine production (IFN-γ) from KLH-stimulated mouse lymph node cells, ELISA; details: Test 3, 4 days
Method: as §1, §2, §3, §6, §4, §5, §7

Row | SMILES | IC50 (IL-4; Test 2, Table 1) [µg/mL] | further results
1 | CCOC(=O)CNc1nc(N)nc2c1CCCC2 [Example 1, Ethyl-2-[(2-amino-5,6,7,8-tetrahydroquinazoline-4-yl)amino]acetate] | 0.6 | –
2 | Nc1nc2c(c(NCC3CCCCC3)n1)CCCC2 [Example 2, N-(2-Amino-5,6,7,8-tetrahydroquinazoline-4-yl)-N-(cyclohexylmethyl)amine] | 0.6 | –
3 | CCOC(=O)C(CC(C)C)Nc1nc(N)nc2c1CCCC2 (stereo not drawn) [Example 3, Ethyl-2-[(2-amino-5,6,7,8-tetrahydroquinazoline-4-yl)amino]-4-methylpentanoate] | 0.5 | –
4 | CCOCCNc1nc(N)nc2c1CCCC2 [Example 4, N-(2-Amino-5,6,7,8-tetrahydroquinazoline-4-yl)-N-(2-ethoxyethyl)amine] | 3 | –
5 | CCCCNc1nc(N)nc2c1CCCC2 [Example 5, N-(2-Amino-5,6,7,8-tetrahydroquinazoline-4-yl)-N-butylamine] | 0.2 | –
6 | CCCCCCNc1nc(N)nc2c1CCCC2 [Example 6, N-(2-Amino-5,6,7,8-tetrahydroquinazoline-4-yl)-N-hexylamine] | 1 | –
7 | CCOC(=O)C(C)Nc1nc(N)nc2c1CCCC2 (stereo not drawn) [Example 7, Ethyl 2-[(2-amino-5,6,7,8-tetrahydroquinazoline-4-yl)amino]propanoate] | 0.5 | –
8 | CCOC(=O)C(CO)Nc1nc(N)nc2c1CCCC2 (stereo not drawn) [Example 8, Ethyl 2-[(2-amino-5,6,7,8-tetrahydroquinazoline-4-yl)amino]-3-hydroxypropanoate] | 1 | –
9 | CCCCC(Nc1nc(N)nc2c1CCCC2)C(=O)OC (stereo not drawn) [Example 9, Methyl 2-[(2-amino-5,6,7,8-tetrahydroquinazoline-4-yl)amino)hexanoate] | 1 | –
10 | CCCCC(CO)Nc1nc(N)nc2c1CCCC2 (stereo not drawn) [Example 10, 2-[(2-Amino-5,6,7,8-tetrahydroquinazoline-4-yl)amino]hexane-1-ol] | 0.1 | –
11 | CCCC(O)CNc1nc(N)nc2c1CCCC2 (stereo not drawn) [Example 11, 1-[(2-Amino-5,6,7,8-tetrahydroquinazoline-4-yl)amino]pentane-2-ol] | 0.1 | –
12 | CCCC(=O)CNc1nc(N)nc2c1CCCC2 [Example 12, 1-[(2-Amino-5,6,7,8-tetrahydroquinazoline-4-yl)amino]pentane-2-one] | 1 | –
13 | Nc1nc2c(c(NCC3CCCO3)n1)CCCC2 (stereo not drawn) [Example 13, N-(2-Amino-5,6,7,8-tetrahydroquinazoline-4-yl)-N-(tetrahydorofuran-2-ylmethyl)amine] | 10 | –
14 | CCCCCNc1nc(N)nc(C)c1CCCC [Example 14, N-(2-Amino-5-butyl-6-methylpyrimidine-4-yl)-N-pentylamine] | 0.1 | –
15 | CCCCCCc1c(C)nc(N)nc1NCCCCC [Example 15, N-(2-Amino-5-hexyl-6-methylpyrimidine-4-yl)-N-pentylamine] | 0.4 | –
16 | CCCCCNc1nc(N)nc2c1COCC2 [Example 16, N-(2-Amino-7,8-dihydro-5H-pyrano[4,3-d]pyrimidine-4-yl)-N-pentylamine] | 3 | –
17 | CCCCCNc1nc(N)nc(CCCC)c1C [Example 17, N-(2-Amino-6-butyl-5-methylpyrimidine-4-yl)-N-pentylamine] | 5 | –
18 | CCCCCNc1nc(N)nc(C)c1C [Example 18, N-(2-Amino-5,6-dimethylpyrimidine-4-yl)-N-pentylamine] | 0.3 | –
19 | CCCCCNc1nc(N)nc2c1CCCC2 [Example 19, N-(2-Amino-5,6,7,8-tetrahydroquinazoline-4-yl)-N-pentylamine] | 0.2 | –
20 | CCCCCNc1nc(N)nc2c1CCC2 [Example 20, N-(2-Amino-6,7-dihydro-5H-cyclopenta[d]pyrimidine-4-yl)-N-pentylamine] | 0.3 | –
21 | CCCCC(Nc1nc(N)nc2c1CCCC2)C(N)=O (stereo not drawn) [Example 21] | 0.5 | –
22 | CCCCCNc1nc(N)nc(C)c1CCOC [Example 22, N-(2-Amino-5-(2-methoxyethyl)-6-methylpyrimidine-4-yl)-N-pentylamine] | 0.5 | –
23 | CCCCCNc1nc(N)nc(C)c1CCC#N [Example 23, 3-[2-Amino-4-methyl-6-(pentylamino)pyrimidine-5-yl]propanenitrile] | 0.5 | –
24 | CCCCCNc1nc(N)nc(C)c1CC [Example 24, N-[2-Amino-5-ethyl-6-methylpyrimidine-4-yl)-N-pentylamine] | 0.2 | –
25 | CCCCc1c(C)nc(N)nc1NCC(O)CCC (stereo not drawn) [Example 25, 1-[(2-Amino-5-butyl-6-methylpyrimidine-4-yl)amino]pentane-2-ol] | 0.1 | –
26 | CCCCCNc1nc(N)nc(C)c1Cc1ccccc1 [Example 26, N-(2-Amino-5-benzyl-6-methylpyrimidine-4-yl)-N-pentylamine] | – | production of IL-5 (IL-5): inhibit the production; production of IFN-γ (IFN-γ): enhance the production; IC50 (IL-4; Test 4, Table 2): 0.5 µg/mL; production of IL-4 (IL-4): inhibit the production
27 | CCCCCNc1nc(N)ncc1Cc1ccccc1 [Example 27, N-(2-Amino-5-benzylpyrimidine-4-yl)-N-pentylamine] | – | production of IL-5 (IL-5): inhibit the production; production of IFN-γ (IFN-γ): enhance the production; IC50 (IL-4; Test 4, Table 2): 1 µg/mL; production of IL-4 (IL-4): inhibit the production
